Results from patent US5286729A, “Angiotensin II receptor blocking 2,3,6 substituted quinazolinones” (American Cyanamid Company, priority 1993, dated 1994).

Biological target: T1, Angiotensin II Receptor (Bos taurus, UniProt P25104)
T1 construct: The brownish tissue forming the adrenal cortex is scraped off and finely minced with scissors before homogenization; from tissue; host or cells: beef adrenal cortex, microsomal (100,000 x g) membranes; adrenals from a local slaughter house (Maxwell-Cohen)
T1 sequence (P25104 1-359): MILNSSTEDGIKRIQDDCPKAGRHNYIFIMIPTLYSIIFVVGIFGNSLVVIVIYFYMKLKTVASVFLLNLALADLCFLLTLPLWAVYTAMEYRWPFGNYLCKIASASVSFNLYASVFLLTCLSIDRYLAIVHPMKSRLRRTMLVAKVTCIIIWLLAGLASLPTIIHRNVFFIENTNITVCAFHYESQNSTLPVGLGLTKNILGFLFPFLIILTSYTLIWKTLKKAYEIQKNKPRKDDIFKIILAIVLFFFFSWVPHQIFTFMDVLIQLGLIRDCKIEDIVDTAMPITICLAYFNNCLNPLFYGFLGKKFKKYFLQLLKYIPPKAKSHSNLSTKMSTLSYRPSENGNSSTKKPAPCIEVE
Assay: Receptor Binding Assay, binding of [125I](Sar1,Ile8)AngII to beef adrenal cortex membranes
Details: beef adrenal membranes; [125I](Sar1,Ile8)AngII; 60 min, room temperature, pH 7.4
Excerpt: Beef adrenals are obtained from a local slaughter house (Maxwell-Cohen). [^125 I](Sar^1,Ile^8)AngII, S.A. 2200 Ci/mmole, is purchased from Dupont (NEN®, Boston, Mass.).
Approximately sixteen (16) to twenty (20) beef adrenal glands are processed as follows: fresh adrenal glands received on crushed ice are cleaned of fatty tissues and the tough membranes encapsulating the glands are removed and discarded. The brownish tissue forming the adrenal cortex is scraped off and finely minced with scissors before homogenization. Care is taken to avoid contamination with medullary tissue during dissection. The scraped cortices are suspended in twenty volumes of an ice-cold buffer medium consisting of 10 mM Tris.HCl (pH 7.4 at 22° C.) and containing 1.0 mM EDTA and 0.2M sucrose. Unless otherwise indicated, all subsequent operations are done at 4° C. […] The homogenate is centrifuged first at low speed (3,000×g) for 10 min. […] The pelleted membrane is reconstituted in 50.0 mM Tris.HCl buffer containing 0.1 mM of phenylmethylsulfonyl fluoride (PMSF) to give approximately a protein concentration of 2.5 mg per ml of tissue suspension. The membrane preparation is finally aliquoted in 1.0 ml volumes and stored at -70° C. until use in the binding assays. […]

`CCCCc1nc2ccc(COc3ccccn3)cc2c(=O)n1Cc1ccc(-c2ccccc2-c2nnn[nH]2)cc1.Cl` [Example 12, 2-Butyl-6-[(2-pyridinyloxy)methyl]-3-[[2'-(1H-tetrazol-5-yl)[1,1'-biphenyl]-4-yl]methyl]-4(3H)-quinazolinone monohydrochloride] gave an IC50 of 0.13 µM.
